Experimental data taken from patent publication US11066381B2, “Urolithins-containing aqueous solution, dried solid composition thereof and production method therefor, and urolithins stabilizing method” (DAICEL CORPORATION, priority 2016, dated 2021).

Experiment: Stability improvement test for urolithin (residual ratio by HPLC after storage at 60° C.)
Assay type: physicochemical
Conditions: for Urolithin A residual ratio (%) (60° C.) 1 week later / Urolithin A residual ratio (%) (60° C.) 2 weeks later: aqueous solution with 10% ethanol, 10% glycerin, 0.005% urolithin A; for Urolithin A residual ratio (%) (60° C.) 1 week later: stored at 60° C. for 1 week; for Urolithin A residual ratio (%) (60° C.) 2 weeks later: stored at 60° C. for 2 weeks
Procedure: The stability of urolithin can be studied by measuring the total amount of urolithin before storage and the total amount of urolithin after storage under a temperature condition of 60° C. for one week or two weeks, and then calculating the urolithin residual ratio (%) according to the following calculation equation. As the method for measuring urolithin, for example, the method using HPLC described in Examples can be used. Urolithin residual ratio (%)=(total amount of urolithin after storage/total amount of urolithin before storage)×100 [Calculation Equation]
A description is given below for a case where urolithin A was used as the urolithin. Analysis of urolithin A was carried out using HPLC. More specifically, urolithin A (manufactured by Dalton Farma) was dissolved in an appropriate solvent to prepare a solution, and the solution was analyzed under the following HPLC conditions. Using the purity (%) (A) and the peak area value (B) in the HPLC, the factor of urolithin A and the urolithin A concentration in the sample were calculated according to the following calculation equation (1) and calculation equation (2). (Calculation Equation for Factor of Urolithin A) Factor of urolithin A=(B)/(concentration of standard solution of urolithin A (mg/L)×(A)/100) (1) (Calculation Equation for Urolithin A Concentration in Sample) Urolithin A concentration in sample (mg/L)=peak area value of urolithin A in sample/factor of urolithin A (2)
To an aqueous solution containing 10% ethanol and 10% glycerin, urolithin A was added to a concentration of 0.005%, and then the urolithin A was dissolved therein. To this solution, collagen (Hanamai) was added to a concentration of 0.5% to prepare a urolithin A-containing aqueous solution. The urolithin A content in the urolithin A-containing aqueous solution was measured after one week of storage and after two weeks of storage under a temperature condition of 60° C. By comparing the urolithin A contents measured before and after the storage, the residual ratio was calculated to evaluate the stability.
The same operation as in Example 1 was carried out except that collagen was not added, to provide a control as Comparative Example 1.
The residual ratio of urolithin A was calculated according to the following calculation equation (3). Urolithin residual ratio (%)=(content of urolithin A after storage/content of urolithin A before storage)×100 (3)

[1] = collagen 0% (Comparative Example 1)

## O=c1oc2cc(O)ccc2c2ccc(O)cc12 [Urolithin A, urolithin A]
[1]
  Urolithin A residual ratio (%) (60° C.) 1 week later: 66.9%
  Urolithin A residual ratio (%) (60° C.) 2 weeks later: 45.0%
Collagen 0.5% (Example 1)
  Urolithin A residual ratio (%) (60° C.) 1 week later: 92.4%
  Urolithin A residual ratio (%) (60° C.) 2 weeks later: 92.2%
In the presence of collagen versus without collagen, storage at 60° C.
  stability of urolithin A: increases in the presence of collagen
